Results as given in ChEMBL document CHEMBL1201862, “PubChem BioAssay data set” (2004).
Active and inactive are the calls of the source.

Tests used:
[1] = molecular target: T1, Polyadenylate-binding protein 1 (Homo sapiens, UniProt P11940); test: MLLE domain peptide-binding blockers, IC50 – biochemical, fluorescence polarization, FITC-PAM2 peptide, dose response (AID 602259); format: functional; settings: read-out: IC50_Mean
[2] = molecular target: T1, Polyadenylate-binding protein 1; test: MLLE binding blockers, Cy5 peptide tracer – biochemical, fluorescence polarization, Cy5-PAM2 peptide, secondary, miRNA deadenylation inhibitor project, dose response (AID 602260); format: functional; settings: read-out: IC50_Mean
[3] = molecular target: T2, Heat shock factor protein 1 (Mus musculus, UniProt P38532); test: enhancement of HSF1-driven luciferase signal – cell-based, NIH3T3, luminescence, dose retest, confirmation (AID 435004); format: functional;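 note: stress induced by proteasome inhibitor MG132 added 30 min after compound; luciferase reporter driven by HSF1 response element in NIH3T3 cells; actives raise luminescence as potentiators of the MG132 stress response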
T2 sequence (P38532 whole entry): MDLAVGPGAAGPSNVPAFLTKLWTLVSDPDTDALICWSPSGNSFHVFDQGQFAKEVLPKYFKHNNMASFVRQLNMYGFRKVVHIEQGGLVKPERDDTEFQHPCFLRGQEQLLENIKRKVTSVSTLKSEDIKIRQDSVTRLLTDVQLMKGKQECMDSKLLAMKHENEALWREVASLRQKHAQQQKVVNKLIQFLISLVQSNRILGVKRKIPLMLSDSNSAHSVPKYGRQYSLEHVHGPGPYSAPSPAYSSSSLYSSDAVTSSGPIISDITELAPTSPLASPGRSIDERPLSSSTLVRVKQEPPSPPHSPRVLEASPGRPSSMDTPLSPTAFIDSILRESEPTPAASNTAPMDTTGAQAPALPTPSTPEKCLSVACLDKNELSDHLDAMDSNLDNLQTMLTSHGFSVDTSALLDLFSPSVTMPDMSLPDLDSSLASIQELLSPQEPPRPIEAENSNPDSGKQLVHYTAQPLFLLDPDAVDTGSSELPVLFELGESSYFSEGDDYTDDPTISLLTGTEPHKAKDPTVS

Protein RecA = molecular target: T3, Protein RecA (Mycobacterium tuberculosis, UniProt P9WHJ3); test: Fluorescence Cell-Free Homogeneous Dose Retest to Identify Inhibitors of RecA-Intein Splicing Activity. [Related pubchem assays (depositor defined):AID2097, AID2223, AID489010, AID492950]; format: functional
T3 sequence (P9WHJ3 whole entry): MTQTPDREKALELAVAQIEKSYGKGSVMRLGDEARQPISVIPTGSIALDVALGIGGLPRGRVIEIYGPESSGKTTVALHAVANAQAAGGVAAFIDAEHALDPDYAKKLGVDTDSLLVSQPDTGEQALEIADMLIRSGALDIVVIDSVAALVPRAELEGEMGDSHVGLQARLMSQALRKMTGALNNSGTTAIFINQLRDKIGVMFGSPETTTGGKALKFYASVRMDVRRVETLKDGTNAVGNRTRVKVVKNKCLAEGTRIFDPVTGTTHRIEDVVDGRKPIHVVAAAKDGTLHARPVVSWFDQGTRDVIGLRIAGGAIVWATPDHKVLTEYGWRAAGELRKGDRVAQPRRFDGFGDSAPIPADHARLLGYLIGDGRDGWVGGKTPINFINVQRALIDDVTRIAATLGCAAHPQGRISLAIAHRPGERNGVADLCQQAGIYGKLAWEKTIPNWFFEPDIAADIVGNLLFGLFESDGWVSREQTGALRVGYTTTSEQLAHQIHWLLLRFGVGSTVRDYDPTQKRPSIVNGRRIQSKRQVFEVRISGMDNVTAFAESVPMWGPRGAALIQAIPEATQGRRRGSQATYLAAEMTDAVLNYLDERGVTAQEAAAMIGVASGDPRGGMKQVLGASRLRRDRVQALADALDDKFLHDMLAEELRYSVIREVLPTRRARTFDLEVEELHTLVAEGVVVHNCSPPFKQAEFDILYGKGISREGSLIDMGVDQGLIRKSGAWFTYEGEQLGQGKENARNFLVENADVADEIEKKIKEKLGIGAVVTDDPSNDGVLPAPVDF

[4] = molecular target: T4, Replicative DNA helicase DnaB (Mycobacterium tuberculosis, UniProt P9WMR3); test: DnaB intein splicing inhibitors, dose response, biochemical, cell-free fluorescence (AID 449749); format: functional
T4 sequence (P9WMR3 whole entry): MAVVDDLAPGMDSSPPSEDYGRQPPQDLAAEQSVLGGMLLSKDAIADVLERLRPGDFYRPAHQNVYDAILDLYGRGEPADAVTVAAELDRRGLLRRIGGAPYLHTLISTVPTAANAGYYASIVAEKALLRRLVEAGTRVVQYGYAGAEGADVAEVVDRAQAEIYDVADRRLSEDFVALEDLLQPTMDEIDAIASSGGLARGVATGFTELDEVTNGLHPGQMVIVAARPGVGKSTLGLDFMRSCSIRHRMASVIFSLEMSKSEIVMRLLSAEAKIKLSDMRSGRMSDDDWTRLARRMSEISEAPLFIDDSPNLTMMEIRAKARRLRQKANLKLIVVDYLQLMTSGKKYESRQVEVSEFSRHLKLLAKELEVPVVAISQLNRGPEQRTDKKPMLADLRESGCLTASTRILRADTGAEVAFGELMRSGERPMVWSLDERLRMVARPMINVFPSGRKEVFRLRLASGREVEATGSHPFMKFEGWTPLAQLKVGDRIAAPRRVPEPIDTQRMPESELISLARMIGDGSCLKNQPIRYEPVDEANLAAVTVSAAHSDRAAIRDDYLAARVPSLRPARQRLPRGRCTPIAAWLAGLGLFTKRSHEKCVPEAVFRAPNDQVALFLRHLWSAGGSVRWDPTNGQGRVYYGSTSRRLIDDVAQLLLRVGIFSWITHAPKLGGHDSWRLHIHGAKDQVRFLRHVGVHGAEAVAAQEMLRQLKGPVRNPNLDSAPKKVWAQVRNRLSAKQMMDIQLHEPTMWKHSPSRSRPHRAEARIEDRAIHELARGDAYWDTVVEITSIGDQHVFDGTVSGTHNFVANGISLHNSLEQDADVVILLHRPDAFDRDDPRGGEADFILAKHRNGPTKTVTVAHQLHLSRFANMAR

Cytochrome P450 2D6 = Cytochrome P450 2D6 (Homo sapiens, UniProt P10635);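 note: CYP2D6 member of a cytochrome P450 panel assay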
Sequence of Cytochrome P450 2D6 (P10635 whole entry): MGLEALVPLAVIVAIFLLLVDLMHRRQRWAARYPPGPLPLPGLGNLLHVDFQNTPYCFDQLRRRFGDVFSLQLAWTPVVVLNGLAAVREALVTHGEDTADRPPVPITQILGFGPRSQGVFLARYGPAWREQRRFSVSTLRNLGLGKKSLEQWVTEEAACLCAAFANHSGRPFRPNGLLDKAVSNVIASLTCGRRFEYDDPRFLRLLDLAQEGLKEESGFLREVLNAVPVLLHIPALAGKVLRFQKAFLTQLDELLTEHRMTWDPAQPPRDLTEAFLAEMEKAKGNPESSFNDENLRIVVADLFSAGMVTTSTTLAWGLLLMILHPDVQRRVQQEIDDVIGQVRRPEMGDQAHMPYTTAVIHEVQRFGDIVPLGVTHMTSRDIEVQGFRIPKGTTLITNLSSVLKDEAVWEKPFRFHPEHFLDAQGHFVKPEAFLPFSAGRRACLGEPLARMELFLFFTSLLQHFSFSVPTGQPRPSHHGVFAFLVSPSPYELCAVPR

[5] = viability of uninfected HEp-2 cells – cell-based, HTS, cytotoxicity control for RSV inhibitor project, dose response (AID 2410); format: functional; settings: human respiratory syncytial virus
Cytochrome P450 2C19 = Cytochrome P450 2C19 (Homo sapiens, UniProt P33261); test: Cytochrome panel assay with activity outcomes. Panel member name: p450-cyp2c19 Compounds with AC50 equal or less than 10 uM are considered active; format: functional; settings: read-out: AC50
Sequence of Cytochrome P450 2C19 (P33261 whole entry): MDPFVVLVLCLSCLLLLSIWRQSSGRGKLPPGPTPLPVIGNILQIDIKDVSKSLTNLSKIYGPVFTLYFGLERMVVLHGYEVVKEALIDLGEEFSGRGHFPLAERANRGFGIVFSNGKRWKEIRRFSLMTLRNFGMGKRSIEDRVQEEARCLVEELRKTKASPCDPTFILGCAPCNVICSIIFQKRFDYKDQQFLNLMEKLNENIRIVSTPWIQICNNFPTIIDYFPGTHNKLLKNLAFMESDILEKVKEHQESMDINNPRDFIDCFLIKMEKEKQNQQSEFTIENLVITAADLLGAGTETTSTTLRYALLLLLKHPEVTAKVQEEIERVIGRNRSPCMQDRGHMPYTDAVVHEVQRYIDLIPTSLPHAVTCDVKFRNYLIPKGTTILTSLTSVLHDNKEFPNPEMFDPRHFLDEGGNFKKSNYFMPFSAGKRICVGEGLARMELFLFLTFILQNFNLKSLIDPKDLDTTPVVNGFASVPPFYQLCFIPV

[6] = molecular target: T5, Corticotropin-releasing factor receptor 2/Corticotropin-releasing factor-binding protein (Homo sapiens, UniProt P24387+Q13324); test: Dose Response confirmation of uHTS hits for small molecule antagonists of the CRF-binding protein and CRF-R2 receptor complex.; format: functional; settings: read-out: IC50_Mean
T5 sequence (Q13324 whole entry): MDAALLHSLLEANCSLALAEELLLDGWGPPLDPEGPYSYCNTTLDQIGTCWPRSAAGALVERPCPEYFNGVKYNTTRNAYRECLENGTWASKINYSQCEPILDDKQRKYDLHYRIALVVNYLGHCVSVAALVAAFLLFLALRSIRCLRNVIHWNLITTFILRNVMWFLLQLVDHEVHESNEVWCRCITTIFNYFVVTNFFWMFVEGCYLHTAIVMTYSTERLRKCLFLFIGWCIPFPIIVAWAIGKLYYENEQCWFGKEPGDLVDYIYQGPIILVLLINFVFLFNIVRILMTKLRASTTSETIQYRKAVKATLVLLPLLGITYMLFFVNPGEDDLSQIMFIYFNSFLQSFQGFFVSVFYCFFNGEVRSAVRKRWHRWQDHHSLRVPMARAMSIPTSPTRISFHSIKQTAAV
T5 sequence (P24387 whole entry): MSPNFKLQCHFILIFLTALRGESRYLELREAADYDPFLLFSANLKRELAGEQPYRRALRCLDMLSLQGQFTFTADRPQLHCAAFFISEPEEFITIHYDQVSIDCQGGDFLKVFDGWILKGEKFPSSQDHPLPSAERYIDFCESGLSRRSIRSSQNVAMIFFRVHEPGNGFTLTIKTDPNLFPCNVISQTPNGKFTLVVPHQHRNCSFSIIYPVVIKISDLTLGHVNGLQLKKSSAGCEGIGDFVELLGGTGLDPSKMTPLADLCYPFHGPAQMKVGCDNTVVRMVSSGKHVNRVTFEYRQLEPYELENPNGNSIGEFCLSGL

[7] = molecular target: T5, Corticotropin-releasing factor receptor 2/Corticotropin-releasing factor-binding protein; test: activators of CRF receptor 2 with binding protein – uHTS hits, confirmation (AID 602473); format: functional; settings: read-out: EC50_Mean

T1 sequence (P11940 whole entry, the tested form may be a part): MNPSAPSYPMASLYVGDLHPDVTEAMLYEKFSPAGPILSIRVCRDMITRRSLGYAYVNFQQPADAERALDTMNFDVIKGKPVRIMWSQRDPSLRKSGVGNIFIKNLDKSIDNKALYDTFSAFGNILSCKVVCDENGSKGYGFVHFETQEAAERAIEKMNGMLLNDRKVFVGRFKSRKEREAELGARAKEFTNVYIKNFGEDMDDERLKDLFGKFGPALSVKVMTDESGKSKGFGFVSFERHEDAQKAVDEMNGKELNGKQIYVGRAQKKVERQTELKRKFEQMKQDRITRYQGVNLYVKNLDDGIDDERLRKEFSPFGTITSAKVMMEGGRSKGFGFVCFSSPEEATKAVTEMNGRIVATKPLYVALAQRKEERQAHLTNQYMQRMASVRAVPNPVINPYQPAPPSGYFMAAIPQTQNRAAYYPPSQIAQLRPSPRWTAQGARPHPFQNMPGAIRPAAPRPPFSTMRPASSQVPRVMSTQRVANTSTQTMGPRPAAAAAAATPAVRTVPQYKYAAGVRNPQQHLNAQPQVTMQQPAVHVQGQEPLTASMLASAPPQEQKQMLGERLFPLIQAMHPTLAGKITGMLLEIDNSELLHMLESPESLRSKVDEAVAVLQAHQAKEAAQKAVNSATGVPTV

SMILES: CSc1ccccc1N=C(S)Nc1ccc(S(N)(=O)=O)cc1
- IC50 [1]: > 66 µM (inactive)
- IC50 [2]: > 66 µM (inactive)

SMILES: CN(c1cccc(NC(=O)CN(c2cccc(Cl)c2)S(=O)(=O)c2ccc(Cl)cc2)c1)S(C)(=O)=O
- EC50 [3]: > 260 µM (inactive)

SMILES: CCOC(=O)CNc1nnc(SCC(=O)OCC)[nH]c1=O
- IC50 [1]: > 66 µM (inactive)
- EC50 (Protein RecA): 0.845 µM (active)
- AC50 [4]: 8.14 µM (active)
- IC50 [2]: > 66 µM (inactive)

SMILES: CCC(Sc1nc2cc3c(cc2c(=O)n1Cc1ccco1)OCO3)C(=O)Nc1ccccc1OC (stereo unspecified)
- AC50 (Cytochrome P450 2D6): 5.01 µM (inconclusive)

SMILES: CSc1ccc(C(c2c(C)n[nH]c2O)c2c(C)n[nH]c2O)cc1
- EC50 (Protein RecA): 0.241 µM (active)
- AC50 [4]: 0.432 µM (active)

SMILES: CCc1nc(N2CCN(S(=O)(=O)c3ccc(Br)cc3)CC2)c2c(C)c(C)sc2n1
- EC50 [3]: > 260 µM (inactive)

SMILES: Cn1c(SCc2nc3ccccc3n2CCO)nc2ccccc21
- AC50 (Cytochrome P450 2D6): 20 µM (inconclusive)

SMILES: Cc1nonc1C1CCCN1Cc1c[nH]nc1-c1ccc(-c2ccccc2)cc1 (stereo unspecified)
- CC50 [5]: 21.4 µM (active)
- EC50 [3]: 35.2 µM (active)

SMILES: C=CCn1c(SCC(=O)Nc2cc(NC(C)=O)ccc2OC)nnc1-c1cccnc1
- EC50 [3]: > 260 µM (inactive)

SMILES: Cc1cc[n+](-c2[n-]c(=O)sc2C=NNC(=O)c2ccccc2)cc1
- IC50 [1]: > 66 µM (inactive)
- IC50 [2]: > 66 µM (inactive)

SMILES: CN(C)c1ncc2nc(-c3ccc(Cl)cc3)c(=O)n(C[C@H]3CCCO3)c2n1
- AC50 (Cytochrome P450 2D6): 1.58 µM (inconclusive)

SMILES: COc1ccc(CNC(=O)CCC(=O)N2CC(C)Oc3ccccc32)cc1 (stereo unspecified)
- EC50 [3]: > 260 µM (inactive)

SMILES: COc1cccc(-c2nc(NCc3cnc(C)cn3)c3ccccc3n2)c1
- AC50 (Cytochrome P450 2C19): 25.1 µM (inconclusive)
- AC50 (Cytochrome P450 2D6): 39.8 µM (inconclusive)

SMILES: COc1ccc(C(C(=O)NCC2CCCO2)N(C(=O)Cn2nnc3ccccc32)c2ccc(NC(C)=O)cc2)cc1OC (stereo unspecified)
- EC50 [3]: > 260 µM (inactive)

SMILES: COc1cccc(C(=O)N2CCCC(CCC(=O)NCc3ccc(F)c(F)c3)C2)c1 (stereo unspecified)
- IC50 [6]: > 47.1 µM (inactive)
- EC50 [7]: > 53 µM (inactive)

SMILES: Cc1n[nH]c2c1C1(CCC3(CC1)OCCO3)C(C#N)=C(N)O2
- EC50 (Protein RecA): > 380 µM (inactive)
- AC50 [4]: > 380 µM (inactive)
